Active and inactive are the calls of the source. No cut-off for these calls is given here.
Columns and labels:
RL [1] = assay: Induction of cell cycle arrest in human RL cells assessed as increase in accumulation in G2/M phase at 10 nM incubated for 24 hrs by PI staining based flow cytometry analysis (reference value: 23.3 %); assay type: functional
A2780 = assay: Antiproliferative activity against human A2780 cells assessed as reduction in cell viability incubated for 72 hrs by MTT assay; assay type: functional, cell-based; settings: A2780, 72 h
RL [2] = assay: Induction of cell cycle arrest in human RL cells assessed as effect on cell cycle distribution at 1 nM incubated for 48 hrs by PI staining based flow cytometry analysis (reference value: 8 %); assay type: functional
RL [3] = assay: Induction of cell cycle arrest in human RL cells assessed as increase in accumulation in subG0/G1 phase at 10 nM incubated for 24 hrs by PI staining based flow cytometry analysis (reference value: 4.5 %); assay type: functional
MES-SA/Dx5 = assay: Antiproliferative activity against multidrug-resistant human MES-SA/Dx5 cells assessed as reduction in cell viability incubated for 72 hrs by prestoblue dye based assay; assay type: functional; settings: MES-SA/Dx5, 72 h
RL [4] = assay: Induction of cell death in human RL cells assessed as cell gating level at 1 to 10 nM measured upto 48 hrs by PI staining based flow cytometry analysis (reference value: 80 to 85 %); assay type: functional; settings: dose 1-10 nM, time hrs <=48
RL [5] = assay: Antiproliferative activity against human RL cells assessed as reduction in cell viability incubated for 72 hrs by MTT assay; assay type: functional, cell-based
MIA PaCa-2 = assay: Antiproliferative activity against human MIA PaCa-2 cells assessed as reduction in cell viability incubated for 72 hrs by MTT assay; assay type: functional, cell-based; settings: MIA PaCa-2, 72 h
RL [6] = assay: Induction of cell cycle arrest in human RL cells assessed as increase in accumulation in subG0/G1 phase at 10 nM incubated for 48 hrs by PI staining based flow cytometry analysis (reference value: 8 %); assay type: functional
Tubulin (Homo sapiens) [7] = biological target: T1, Tubulin (Homo sapiens) (UniProt P68371+Q9H4B7+P0DPH7+P68366+Q13509+Q71U36+P04350+Q3ZCM7+P07437+P68363+Q9BQE3+Q6PEY2+Q13885+Q9BVA1+Q9BUF5); assay: Inhibition of tubulin polymerization in human HeLa cells assessed as dynamic tyrosinated microtubules content at 14 uM by incubated for 2 hrs by immunofluorescence staining based assay; assay type: cell-based
Tubulin = assay: Inhibition of tubulin polymerization in human HeLa cells assessed as dynamic tyrosinated microtubules content by incubated for 2 hrs by immunofluorescence staining based assay; assay type: cell-based
Tubulin (Homo sapiens) [8] = biological target: T1, Tubulin (Homo sapiens); assay: Inhibition of tubulin polymerization in human HeLa cells assessed as dynamic tyrosinated microtubules content at 1 uM by incubated for 2 hrs by immunofluorescence staining based assay; assay type: cell-based
Tubulin (Homo sapiens) [9] = biological target: T1, Tubulin (Homo sapiens); assay: Inhibition of tubulin polymerization in human HeLa cells assessed as dynamic tyrosinated microtubules content at 2 uM by incubated for 2 hrs by immunofluorescence staining based assay; assay type: cell-based
RL [10] = assay: Induction of cell cycle arrest in human RL cells assessed as increase in accumulation in subG0/G1 phase at 1 nM incubated for 48 hrs by PI staining based flow cytometry analysis (reference value: 8 %); assay type: functional

Row | IC50 (A2780) | IC50 (MIA PaCa-2) | EC50 (Tubulin) | SMILES | IC50 (MES-SA/Dx5) | IC50 (RL [5]) | also measured
1 | – | – | – | COc1cc(/C=C\c2csc3ccccc23)cc(OC)c1OC | 288 nM | – | –
2 | – | – | – | COc1cc(C(=O)C(=O)c2cc3ccccc3s2)cc(OC)c1OC | – | – | inhibition (Tubulin (Homo sapiens) [7]): 35%
3 | 360 nM | 120 nM | 555 nM | COc1cc(/C=C\c2sc3ccccc3c2C)cc(OC)c1OC | – | 61 nM | –
4 | – | – | 717 nM | COc1cc(/C=C\c2cc3cc(O)ccc3s2)cc(OC)c1OC | – | – | –
5 | – | – | – | COc1ccc(/C=C\c2cc(OC)c(OC)c(OC)c2)s1 | 75 nM | – | –
6 | – | – | – | COc1ccc2sc(/C=C\c3cc(OC)c(OC)c(OC)c3)cc2c1 | – | – | inhibition (Tubulin (Homo sapiens) [8]): 14%; inhibition (Tubulin (Homo sapiens) [9]): 62%
7 | – | – | – | C=C(c1cc(OC)c(OC)c(OC)c1)c1cc2ccccc2s1 | 150 nM | – | –
8 | > 1000 nM | > 1000 nM | > 10000 nM | COc1ccsc1/C=C\c1cc(OC)c(OC)c(OC)c1 | – | > 1000 nM | –
9 | 200 nM | 200 nM | 523 nM | COc1cc(/C=C\c2cc3cc(F)ccc3s2)cc(OC)c1OC | – | 38 nM | –
10 | 7.9 nM | 7.8 nM | – | COc1cc(/C=C\c2cc3ccccc3s2)cc(OC)c1OC | 19 nM | 7.6 nM | –

Row | SMILES | IC50 (A2780) | IC50 (MIA PaCa-2) | EC50 (Tubulin) | IC50 (MES-SA/Dx5) | IC50 (RL [5]) | also measured
11 | COc1csc(/C=C\c2cc(OC)c(OC)c(OC)c2)c1 | 13 nM | 14 nM | – | 27 nM | 11 nM | Activity (RL [1]): 48.8%; Activity (RL [2]): inactive; Activity (RL [3]): 15.6%; Activity (RL [4]): 45%; Activity (RL [6]): 23.4%
12 | COc1cc2c(c(OC)c1OC)-c1ccc(OC)c(=O)cc1[C@@H](NC(C)=O)CC2 [COLCHICINE] | 14 nM | 6.1 nM | – | 757 nM | 4.4 nM | –
13 | COc1ccc(/C=C\c2cc(OC)c(OC)c(OC)c2)cc1O [COMBRETASTATIN A4] | 2.5 nM | 2.1 nM | – | 3 nM | 1.4 nM | Activity (RL [10]): 30.1%; Activity (RL [3]): 19.3%; Activity (RL [4]): 45%; Activity (RL [6]): 34.9%
